Results on three molecules are retold here after publication PMC6316600, “Analgesic Activity of Acid-Sensing Ion Channel 3 (ASIС3) Inhibitors: Sea Anemones Peptides Ugr9-1 and APETx2 versus Low Molecular Weight Compounds” (Marine Drugs, 2018).

The IC50 is the concentration at which inhibition is half-maximal.

“Also recorded” adds a separate entry of the source. Bridge positions count the residues as written; N and C are the ends. Peptide text beside a SMILES is read from it.

Test [1] deals with mice. As to the kind of experiment: CFA-induced thermal hyperalgesia. In kind it is in vivo, CD-1 mice. The note with it: for Effect in CFA test at lowest dose / Dose dependence of effect, thermal hyperalgesia / Dose of maximal effect, thermal hyperalgesia / Reversal of thermal hyperalgesia, 1 mg/kg compared with 0.001–0.002 mg/kg / Thermal hyperalgesia result (in words): intramuscular; for Effect confirmed in independent experiment: sevanol 0.01 mg/kg, Ugr9-1 0.02 mg/kg, data not shown. On the procedure:
CFA-induced thermal hyperalgesia is a result of different inflammatory pathways’ action on thermal sensitivity of the paw. Injection of CFA into the hind paw provokes increased sensitivity to noxious mechanical and thermal stimuli together with swelling of the paw due to the inflammatory process. […] For APETx2 (Figure 4B), sevanol (Figure 4C), and Ugr9-1 (Figure 4D), the dose dependency of the analgesic effect was evaluated.
Figure 4 Effect of ligands on the CFA-induced thermal hyperalgesia test. Test was performed 2 h after intramuscular administration of ASIC3 antagonists. (A) Comparison between ligands at the dose of 1 mg/kg; (B–D) Dose-dependent chart of ligands’ effect. […] Results are presented as mean ± SEM (n = 7–8). * p < 0.05, ** p < 0.01, *** p < 0.001 versus saline group (ANOVA followed by a Tukey’s test).
Adult male CD-1 mice (Animal Breeding Facility Branch of Shemyakin-Ovchinnikov Institute of Bioorganic Chemistry, Russian Academy of Sciences, Pushchino, Russia) weighing 20–25 g were used. Animals that originally passed clinical examination that confirmed no deviations in health were divided into groups (at least eight male mice per group) using the principle of randomization. The average body weight of animals in each group was not statistically different between groups. Animals were housed at room temperature (23 ± 2 °C) and subjected to a 12-h light-dark cycle with food and water available ad libitum. All experiments were performed after receiving approval from the Animal Care and Use Committee of the Branch of the Institute of Bioorganic Chemistry, Russian Academy of Sciences (IBCh RAS) (Pushchino, Russia Federation). The samples were administered intramuscularly 2 h before testing (4 h in the open field test). The initial dose of 1 mg/kg was investigated for all samples, which was further reduced 5, 50, and 500 times for peptides.
CFA suspended in an oil/saline (1:1) emulsion was injected into the dorsal surfaces of the left hind paws of mice (20 µL/paw) 24 h before the samples’ intramuscular injection. The control mice received 20 µL of saline (intraplantar). The paw withdrawal latencies to thermal stimulation (53 °C) were measured 2 h after the sample injection. The paw diameter was evaluated before the CFA injection, before the samples and saline administration, and 2, 4, and 24 h after the administration using a digital calliper.
The data significance in animal tests was determined by an analysis of variance followed by a Tukey’s test. Data are presented as the mean ± SEM.

In test [2] the target is T1, human ASIC3 (Homo sapiens, UniProt Q9UHC3).
T1 construct: host or cells: Xenopus laevis oocytes (cRNA injection)
T1 sequence (Q9UHC3 1-531): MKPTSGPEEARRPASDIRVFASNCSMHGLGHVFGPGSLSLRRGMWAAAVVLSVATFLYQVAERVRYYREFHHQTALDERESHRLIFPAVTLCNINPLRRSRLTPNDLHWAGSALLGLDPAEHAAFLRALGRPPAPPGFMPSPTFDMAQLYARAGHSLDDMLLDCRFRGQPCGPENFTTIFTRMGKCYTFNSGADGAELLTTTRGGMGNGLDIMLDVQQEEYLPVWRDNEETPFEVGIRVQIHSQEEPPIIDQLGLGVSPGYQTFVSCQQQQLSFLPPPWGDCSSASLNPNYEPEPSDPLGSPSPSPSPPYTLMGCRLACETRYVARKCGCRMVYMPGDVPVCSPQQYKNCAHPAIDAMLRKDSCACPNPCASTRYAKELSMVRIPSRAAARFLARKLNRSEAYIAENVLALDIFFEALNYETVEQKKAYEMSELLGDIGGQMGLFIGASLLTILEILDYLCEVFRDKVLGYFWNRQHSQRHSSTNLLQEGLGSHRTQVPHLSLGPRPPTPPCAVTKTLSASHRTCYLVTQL
As to the kind of experiment: Inhibition of transient hASIC3 current, two-electrode voltage clamp, Xenopus laevis oocytes. In kind it is cell-based. On the procedure: The activity of ligands was checked on human ASIC3 (hASIC3) channels expressed in Xenopus laevis oocytes. […] Two different protocols were used to reveal the effects of ligands on sustained and transient components of acid-induced hASIC3 currents. The influence of the compounds on the transient current amplitude was estimated after preincubation for 15 s before the activation in a low alkali bath solution (pH 7.8), which ensured an absence of steady-state desensitization for the transient current (Figure 1A). The compounds’ inhibition effectiveness was calculated using the value of maximal amplitudes. […] The inhibitory effect was concentration-dependent and fit well using a logistic equation.
Figure 1 Comparison of ligands’ antagonistic effects on hASIC3 channels. Whole-cell currents were induced by pH drops and recorded at the holding potential −50 mV. (A) Effect of ligands on the transient component of current at conditioning pH 7.8. The control trace is shown first; (B) Effect of ligands on the sustained component at conditioning pH 7.3. The black line is the control trace, and the red line is the trace of activation in the presence of a ligand. Dose-response curves for transient (C) and sustained (D) currents’ inhibitions are shown. Data are shown as mean ± SEM (n = 4–6) and fitted with the logistic equation (solid lines).
X. laevis oocytes were removed surgically and defolliculated by collagenase (Sigma-Aldrich, Moscow, Russia). Oocytes were injected with 2.5 to 10 ng of human ASIC3 cRNA (AF057711.1). The cRNA transcripts were synthesised from a NaeI-linearized ASIC3 cDNA template (pcDNA3.1+humanASIC3 subcloned from clone EX-Q0260- B02 (GeneCopoeia, Inc., Rockville, MD USA) using a HiScribe T7 High Yield RNA Synthesis Kit (New England Biolabs, Ipswich, MA, USA) according to the manufacturer’s protocol for capped transcripts. After the injection, oocytes were kept for 3 to 6 days at 19° in a ND-96 medium containing (in mM) 96 NaCl, 2 KCl, 1.8 CaCl2, 1 MgCl2, and 5 HEPES titrated to pH 7.4 with NaOH supplemented with gentamycin (50 µg/mL). Two-electrode voltage clamp recordings were performed using a GeneClamp 500 amplifier (Axon Instruments, Union City, CA, USA), and the data were filtered at 20 Hz and digitized at 100 Hz by an AD converter L780 (LCard, Moscow, Russia) using in-house software. To induce transient and/or sustained currents, two different protocols with different conditioning pH were used. Microelectrodes were filled with a 3 M KCl solution. The working buffer solution was ND-96 titrated by NaOH to pH 7.8 or 7.3. The solution for the pH shift was constructed based on the ND-96 solution, in which 5 mM HEPES was replaced with 10 mM acetic acid (pH 4.0) or 10 mM MES (pH 5.5) in a supplementary 0.1% BSA solution. The duration of the activation pulses was 3.5 s.
The analysis of the electrophysiological data was performed using the OriginPro 8.6 programme.
Background: Two-electrode voltage clamp holds a large cell at a set potential and records current.

[3] abbreviates: hASIC3 in X. laevis oocytes, conditioning pH 7.8, mean ± SEM (n = 4–6).

`CC[C@H](C)[C@H](N)C(=O)N[C@@H](CO)C(=O)N[C@H](C(=O)N[C@@H](CC(=O)O)C(=O)N1CCC[C@H]1C(=O)N1CCC[C@H]1C(=O)N[C@H]1CSSC[C@@H](C(=O)NCC(=O)N[C@@H](C)C(=O)N[C@H](C(=O)O)C(C)C)NC(=O)CNC(=O)[C@H](Cc2ccc(O)cc2)NC(=O)[C@H](C)NC(=O)[C@H](CC(=O)O)NC(=O)[C@H](Cc2ccc(O)cc2)NC(=O)[C@H](C(C)C)NC(=O)[C@@H]2CSSC[C@H](NC(=O)[C@H](Cc3ccccc3)NC(=O)[C@H](CCCNC(=N)N)NC1=O)C(=O)N[C@@H](Cc1ccc(O)cc1)C(=O)N[C@@H](Cc1c[nH]cn1)C(=O)N[C@@H](CCCNC(=N)N)C(=O)N[C@@H](CC(=O)O)C(=O)NCC(=O)N[C@@H](CO)C(=O)NCC(=O)N[C@@H](CC(N)=O)C(=O)N2)[C@@H](C)CC` [Ugr9-1] (H-ISIDPPCRFCYHRDGSGNCVYDAYGCGAV-OH; disulfide 7-26, 10-19; N-terminus and C-terminus assumed): the “Effect in CFA test at lowest dose” value in test [1] (0.002 mg/kg (Ugr9-1), 2 h before) was “absence of the effect”. Besides, in test [1] (2 h before, n = 7–8), the “Dose dependence of effect, thermal hyperalgesia” value is recorded as “bell-shaped; also recorded: nonlinear dose response”; the “Dose of maximal effect, thermal hyperalgesia” value was 0.02 mg/kg; the “Reversal of thermal hyperalgesia, 1 mg/kg compared with 0.001–0.002 mg/kg” value is reported as “did not differ significantly”; the “Thermal hyperalgesia result (in words)” value is “reversed CFA-induced thermal hyperalgesia and prolonging withdrawal latency of the inflamed hind paw on a hot plate”. In test [1], the “Effect confirmed in independent experiment” value is recorded as “confirmed in the independent experiment”. In addition, in test [2], the “Rank of in vitro potency, transient component of hASIC3 current” value is given as “APETx2 > Ugr9-1 > sevanol”. For the same molecule, in test [2] (Ugr9-1 versus APETx2), the “Concentration needed to block transient current relative to APETx2” value was 30 times and the “Lower efficacy in inhibition of the transient component relative to APETx2” value was 30 times. Further, in test [2] (conditioning pH 7.8), the “Inhibition of transient current (in words)” value (shortened to “Inhibition … (in words)”) is “completely blocked the transient current of ASIC3; also recorded: decreased transient and sustained components of the current”. Further, the “Hill coefficient, transient currents” value in test [2] (setting [3]) came to 1.86 ± 0.16.
For the molecule `O=C(O)Cc1ccccc1Nc1c(Cl)cccc1Cl` [diclofenac, reference compound], the “Reversal of thermal hyperalgesia, comparison at 1 mg/kg” value in test [1] (1 mg/kg intramuscular, 2 h before, hot plate 53 °C, n = 7–8) is “equal potency in the reversal of thermal hyperalgesia, which exceeded the analgesic potency of sevanol and Ugr9-1”. For the same molecule, the “Inhibition … (in words)” value in test [2] (conditioning pH 7.8) is recorded as “not detected”.
Regarding `O=C(O)C[C@H](C(=O)O)[C@@H](OC(=O)C1=Cc2cc(O)c(O)cc2[C@@H](c2ccc(O)c(O)c2)[C@@H]1C(=O)O[C@@H](C(=O)O)[C@H](CC(=O)O)C(=O)O)C(=O)O` [sevanol], the “Effect in CFA test at lowest dose” value in test [1] (0.001 mg/kg (sevanol), 2 h before) is recorded as “absence of the effect”. In addition, in test [1] (2 h before, n = 7–8), the “Dose dependence of effect, thermal hyperalgesia” value was “bell-shaped; also recorded: nonlinear dose response”; the “Dose of maximal effect, thermal hyperalgesia” value worked out at 0.01 mg/kg; the “Reversal of thermal hyperalgesia, 1 mg/kg compared with 0.001–0.002 mg/kg” value is given as “did not differ significantly”; the “Thermal hyperalgesia result (in words)” value is “reversed CFA-induced thermal hyperalgesia and prolonging withdrawal latency of the inflamed hind paw on a hot plate”. Also, the “Effect confirmed in independent experiment” value in test [1] is reported as “confirmed in the independent experiment”. Further, the “Rank of in vitro potency, transient component of hASIC3 current” value in test [2] is given as “APETx2 > Ugr9-1 > sevanol”. For the same molecule, the “Inhibition … (in words)” value in test [2] (conditioning pH 7.8) was “had much less potency and inhibited transient currents in submillimolar concentrations; also recorded: complete inhibition was observed; also recorded: decreased transient and sustained components of the current”. Also, the 50% inhibitory concentration (IC50) in test [2] (hASIC3 in X. laevis oocytes, conditioning pH 7.8, 15 s preincubation, holding -50 mV, logistic fit, mean ± SEM (n = 4–6), read-out: IC50, transient currents) was found to be 331 ± 21 µM. In addition, in test [2] (setting [3]), the “Hill coefficient, transient currents” value came out at 1.98 ± 0.24. The “Lower efficacy in vitro relative to APETx2” value in test [2] (sevanol versus APETx2) turned out to be 1000 fold. For the same molecule, in test [2] (sevanol versus Ugr9-1), the “Lower efficacy in vitro relative to Ugr9-1” value is reported as 35 fold.
